Patent publication US7009052B2, “Sulfonamide derivatives” (Warner Lambert Company LLC, priority 2003, dated 2006)

What follows are compounds tested against T1, androgen receptor (Homo sapiens, UniProt P10275) (assay: AR Antagonist Cell Assay (MMTV-luciferase reporter, DHT-induced)). Settings: MDA-MB453-MMTV clone 54-19 cells, 100 pM DHT, 17 hr.
T1 sequence (P10275 1-920 Q868H): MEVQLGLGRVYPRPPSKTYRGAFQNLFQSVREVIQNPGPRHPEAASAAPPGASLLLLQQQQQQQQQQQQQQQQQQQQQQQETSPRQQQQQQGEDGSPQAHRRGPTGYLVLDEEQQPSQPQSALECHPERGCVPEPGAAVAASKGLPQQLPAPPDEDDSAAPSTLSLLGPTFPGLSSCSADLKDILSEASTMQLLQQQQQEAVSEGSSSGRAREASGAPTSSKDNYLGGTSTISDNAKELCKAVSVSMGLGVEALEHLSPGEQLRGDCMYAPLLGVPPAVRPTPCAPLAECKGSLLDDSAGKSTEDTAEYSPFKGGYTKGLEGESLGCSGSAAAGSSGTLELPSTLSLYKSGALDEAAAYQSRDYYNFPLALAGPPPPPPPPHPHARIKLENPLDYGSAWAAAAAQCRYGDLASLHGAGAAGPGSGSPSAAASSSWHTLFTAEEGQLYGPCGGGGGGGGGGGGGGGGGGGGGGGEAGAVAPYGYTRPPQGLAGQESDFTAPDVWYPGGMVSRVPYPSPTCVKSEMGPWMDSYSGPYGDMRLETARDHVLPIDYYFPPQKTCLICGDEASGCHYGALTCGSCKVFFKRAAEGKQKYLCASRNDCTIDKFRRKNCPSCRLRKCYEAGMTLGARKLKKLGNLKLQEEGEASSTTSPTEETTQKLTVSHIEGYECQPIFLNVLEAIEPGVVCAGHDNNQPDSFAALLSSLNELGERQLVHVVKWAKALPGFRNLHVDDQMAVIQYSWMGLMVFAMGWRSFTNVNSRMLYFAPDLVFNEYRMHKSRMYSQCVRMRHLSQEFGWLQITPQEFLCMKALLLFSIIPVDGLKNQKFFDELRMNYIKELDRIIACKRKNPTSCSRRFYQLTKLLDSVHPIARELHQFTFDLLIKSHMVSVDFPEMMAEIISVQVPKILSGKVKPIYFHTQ
Assay type: cell-based
Outline: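 Stably transfected MDA-MB453 cells carrying an ARE-containing MMTV promoter–firefly luciferase reporter, pretreated 30 min with compound at 10 uM or 1 uM in 1% charcoal-treated serum medium. Then stimulated with 100 pM DHT for 17 hr at 37° C. and luminescence read; expressed as % inhibition of DHT-induced signal.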

Row | IC50 [nM] | Compound
1 | 4310 | Cn1c(=O)cc(C(F)(F)F)c2cc(S(=O)(=O)NC3CCc4ccccc43)ccc21 (stereo not shown) [Example 55, 1-Methyl-2-oxo-4-trifluoromethyl-1,2-dihydroquinoline-6-sulfonicacid indan-1-ylamide]
2 | 260 | O=c1cc(C(F)(F)F)c2cc(S(=O)(=O)Nc3cccc(OC(F)F)c3)ccc2[nH]1 [Example 106, 2-Oxo-4-trifluoromethyl-1,2-dihydroquinoline-6-sulfonic acid(3-difluoromethoxyphenyl)amide]
3 | 870 | CCc1ccc(NS(=O)(=O)c2ccc3c(c2)c(C(F)(F)F)cc(=O)n3C)cc1 [Example 17, 1-Methyl-2-oxo-4-trifluoromethyl-1,2-dihydroquinoline-6-sulfonicacid (4-ethylphenyl)amide]

Row | Compound | IC50 [nM]
4 | CCCCN(CCCC)S(=O)(=O)c1ccc2[nH]c(=O)cc(C(F)(F)F)c2c1 [Example 68, 2-Oxo-4-trifluoromethyl-1,2-dihydroquinoline-6-sulfonic aciddibutylamide] | 410
